Assay results published in patent US10703745B2, “Acyl phosphonamidates and acyl benzylamines that are Bcl family antagonists for use in clinical management of conditions caused or mediated by senescent cells and for treating cancer” (Unity Biotechnology, Inc., priority 2018, dated 2020).

Key:
[1] = system: 3MR or INK-ATTAC mice exposed to cigarette smoke; experiment: Cigarette smoke COPD model, oxygen saturation by pulse oximeter; format: in vivo, mouse; conditions: after two months of cigarette smoke exposure, compared with untreated controls
Text: The mice used in this study include the 3MR strain, described in US 2017/0027139 A1 and in Demaria et al., Dev Cell. 2014 Dec. 22; 31(6): 722-733. The 3MR mouse has a transgene encoding thymidine kinase that converts the prodrug ganciclovir (GCV) to a compound that is lethal to cells. The enzyme in the transgene is placed under control of the p16 promoter, which causes it to be specifically expressed in senescent cells. Treatment of the mice with GCV eliminates senescent cells.
Other mice used in this study include the INK-ATTAC strain, described in US 2015/0296755 A1 and in Baker et al., Nature 2011 Nov. 2; 479(7372):232-236. The INK-ATTAC mouse has a transgene encoding switchable caspase 8 under control of the p16 promoter. The caspase 8 can be activated by treating the mice with the switch compound AP20187, whereupon the caspase 8 directly induces apoptosis in senescent cells, eliminating them from the mouse.
To conduct the experiment, six-week-old 3MR (n=35) or INK-ATTAC (n=35) mice were chronically exposed to cigarette smoke generated from a Teague TE-10 system, an automatically-controlled cigarette smoking machine that produces a combination of side-stream and mainstream cigarette smoke in a chamber, which is transported to a collecting and mixing chamber where varying amounts of air is mixed with the smoke mixture. The COPD protocol was adapted from the COPD core facility at Johns Hopkins University (Rangasamy et al., 2004, J. Clin. Invest. 114:1248-1259; Yao et al., 2012, J. Clin. Invest. 122:2032-2045).
Mice received a total of 6 hours of cigarette smoke exposure per day, 5 days a week for 6 months. Each lighted cigarette (3R4F research cigarettes containing 10.9 mg of total particulate matter (TPM), 9.4 mg of tar, and 0.726 mg of nicotine, and 11.9 mg carbon monoxide per cigarette [University of Kentucky, Lexington, Ky.]) was puffed for 2 seconds and once every minute for a total of 8 puffs, with the flow rate of 1.05 L/min, to provide a standard puff of 35 cm3. The smoke machine was adjusted to produce a mixture of side stream smoke (89%) and mainstream smoke (11%) by smoldering 2 cigarettes at one time. The smoke chamber atmosphere was monitored for total suspended particulates (80-120 mg/m3) and carbon monoxide (350 ppm). […]
After two months of cigarette smoke (CS) exposure, lung function was assessed by monitoring oxygen saturation using the MouseSTAT PhysioSuite™ pulse oximeter (Kent Scientific). […] Mice were monitored for 30 seconds and the average peripheral capillary oxygen saturation (SpO2) measurement over this duration was calculated.

[2] = system: primary cells from patients with B-cell malignancies; conditions: in vitro; cited from earlier work
cancer cells = conditions: cited from earlier work
[3] = system: LDLR-/- mice fed a high fat diet; experiment: Atherosclerosis model: RT-PCR of SASP factors and senescent cell markers in aortic arch; format: in vivo, mouse; conditions: 25 mg/kg intraperitoneally, HFD
Description: Two groups of LDLR−/− mice (10 weeks) are fed a high fat diet (HFD) (Harlan Teklad TD.88137) having 42% calories from fat, beginning at Week 0 and throughout the study. Two groups of LDLR−/− mice (10 weeks) are fed normal chow (−HFD). From weeks 0-2, one group of HFD mice and −HFD mice are treated with Nutlin-3A (25 mg/kg, intraperitoneally). One treatment cycle is 14 days treatment, 14 days off. Vehicle is administered to one group of HFD mice and one group of −HFD mice. At week 4 (timepoint 1), one group of mice are sacrificed and to assess presence of senescent cells in the plaques. For the some of the remaining mice, Nutlin-3A and vehicle administration is repeated from weeks 4-6. […]
At the end of timepoint 1, LDLR−/− mice fed a HFD and treated with Nutlin-3A or vehicle were sacrificed (n=3, all groups), and the aortic arches were dissected for RT-PCR analysis of SASP factors and senescent cell markers. Values were normalized to GAPDH and expressed as fold-change versus age-matched, vehicle-treated LDLR−/− mice on a normal diet.
At the end of timepoint 2, LDLR−/− mice fed a HFD and treated with Nutlin-3A or vehicle (n=3 for all groups) were sacrificed, and aortic arches were dissected for RT-PCR analysis of SASP factors and senescent cell markers. Values were normalized to GAPDH and expressed as fold-change versus age-matched, vehicle-treated LDLR−/− mice on a normal diet.

[4] = system: C57BL/6J mice with surgery-induced osteoarthritis; experiment: Osteoarthritis model (ACL surgery): qRT-PCR of senescence markers and SASP factors in operated joints; format: in vivo, mouse; conditions: 5.8 μg per operated knee intra-articular, 4 weeks post-surgery
Description: (§1) The model was implemented as follows. C57BL/6J mice underwent surgery to cut the anterior cruciate ligament of one rear limb to induce osteoarthritis in the joint of that limb. During week 3 and week 4 post-surgery, the mice were treated with 5.8 μg of Nutlin-3A (n=7) per operated knee by intra-articular injection, q.o.d. for 2 weeks. At the end of 4 weeks post-surgery, joints of the mice were monitored for presence of senescent cells, assessed for function, monitored for markers of inflammation, and underwent histological assessment.
Two control groups of mice were included in the studies performed: one group comprising C57BL/6J or 3MR mice that had undergone a sham surgery (n=3) (i.e., surgical procedures followed except for cutting the ACL) and intra-articular injections of vehicle parallel to the GCV (ganciclovir) treated group; and one group comprising C57BL/6J or 3MR mice that had undergone an ACL surgery and received intra-articular injections of vehicle (n=5) parallel to the GCV-treated group. RNA from the operated joints of mice from the Nutlin-3A treated mice was analyzed for expression of SASP factors (mmp3, IL-6) and senescence markers (p16). qRT-PCR was performed to detect mRNA levels.

[5] = system: LDLR-/- mice fed a high fat diet; experiment: Atherosclerosis model: body composition by MRI and circulating blood cell counts; format: in vivo, mouse; conditions: timepoint 3
Description: (§2) Two groups of LDLR−/− mice (10 weeks) are fed a high fat diet (HFD) (Harlan Teklad TD.88137) having 42% calories from fat, beginning at Week 0 and throughout the study. Two groups of LDLR−/− mice (10 weeks) are fed normal chow (−HFD). From weeks 0-2, one group of HFD mice and −HFD mice are treated with Nutlin-3A (25 mg/kg, intraperitoneally). One treatment cycle is 14 days treatment, 14 days off. Vehicle is administered to one group of HFD mice and one group of −HFD mice. At week 4 (timepoint 1), one group of mice are sacrificed and to assess presence of senescent cells in the plaques. For the some of the remaining mice, Nutlin-3A and vehicle administration is repeated from weeks 4-6. At week 8 (timepoint 2), the mice are sacrificed and to assess presence of senescent cells in the plaques. The remaining mice are treated with Nutlin-3A or vehicle from weeks 8-10. At week 12 (timepoint 3), the mice are sacrificed and to assess the level of plaque and the number of senescent cells in the plaques.
(§3) At the end of timepoint 3, LDLR−/− mice fed a HFD and treated with Nutlin-3A or vehicle (n=3 for all groups) were sacrificed, and aortas were dissected and stained with Sudan IV to detect the presence of lipid. Body composition of the mice was analyzed by MRI, and circulating blood cells were counted by Hemavet™.

[6] = system: C57BL/6J mice with surgery-induced osteoarthritis; experiment: Osteoarthritis model: weight bearing test of hind limbs; format: in vivo, mouse; conditions: 4 weeks post-surgery
Description: as §1
Function of the limbs was assessed 4 weeks post-surgery by a weight bearing test to determine which leg the mice favored. The mice were allowed to acclimate to the chamber on at least three occasions prior to taking measurements. Mice were maneuvered inside the chamber to stand with one hind paw on each scale. The weight that was placed on each hind limb was measured over a three second period. At least three separate measurements were made for each animal at each time point. The results were expressed as the percentage of the weight placed on the operated limb versus the contralateral unoperated limb.

[7] = system: C57BL/6J mice with surgery-induced osteoarthritis; experiment: Osteoarthritis model: histopathology of joint tissue; format: in vivo, mouse; conditions: ACL surgery, 4 weeks post-surgery
Description: as §1

[8] = system: LDLR-/- mice fed a high fat diet; experiment: Atherosclerosis model: Sudan IV staining of aortic plaques; format: in vivo, mouse; conditions: timepoint 3 (week 12), 25 mg/kg intraperitoneally, HFD
Description: as §2, §3

CC1(C)CCC(c2ccc(Cl)cc2)=C(CN2CCN(c3ccc(C(=O)NS(=O)(=O)c4ccc(N[C@H](CCN5CCOCC5)CSc5ccccc5)c(S(=O)(=O)C(F)(F)F)c4)cc3)CC2)C1 [ABT-263, Navitoclax]
SpO2 levels [1]: statistically significant increases

CN(C)CC[C@H](CSc1ccccc1)Nc1ccc(S(=O)(=O)NC(=O)c2ccc(N3CCN(Cc4ccccc4-c4ccc(Cl)cc4)CC3)cc2)cc1[N+](=O)[O-] [ABT-737]
sensitivity of primary cells from patients with B-cell malignancies [2]: sensitive
dose-limiting toxicity in human patients (cancer cells): dose-limiting thrombocytopenia
efficacy against cancer cells in human patients (cancer cells): effective against some types of cancer cells

CC[C@H](C(=O)N1CCCC[C@H]1C(=O)O[C@H](CCc1ccc(OC)c(OC)c1)c1cccc(OCC(=O)NCC(CNC(=O)COc2cccc([C@@H](CCc3ccc(OC)c(OC)c3)OC(=O)[C@@H]3CCCCN3C(=O)[C@@H](CC)c3cc(OC)c(OC)c(OC)c3)c2)CN(C)C)c1)c1cc(OC)c(OC)c(OC)c1 [AP2018]
SpO2 levels [1]: statistically significant increases

COc1ccc(C2=N[C@@H](c3ccc(Cl)cc3)[C@@H](c3ccc(Cl)cc3)N2C(=O)N2CCNC(=O)C2)c(OC(C)C)c1 [Nutlin-3A]
expression of SASP factors and senescent cell markers MMP3, MMP13, PAI1, p21, IGFBP2, IL-1A, IL-1B in aortic arch ([3]; timepoint 1 (week 4), one treatment cycle): reduced expression of several SASP factors and senescent cell markers
expression of SASP factors and senescent cell markers in aortic arch ([3]; timepoint 2 (week 8), multiple treatment cycles): reduced expression of most markers
SpO2 levels [1]: statistically significant increases
expression of IL-6 in the tissue ([4]; q.o.d. for 2 weeks, mRNA): reduced the expression back to below the level of the controls
expression of MMP13 in the tissue ([4]; q.o.d. for 2 weeks, mRNA): reduced the expression back to below the level of the controls
expression of p16 in the tissue ([4]; q.o.d. for 2 weeks, mRNA): reduced the expression back to below the level of the controls
senescent cells in the joint [4]: cleared senescent cells from the joint
body fat composition ([5]; mice fed the high fat diet): decreased
mass ([5]; mice fed the high fat diet): decreased
lymphocyte counts versus vehicle treated mice [5]: equivalent
platelet counts versus vehicle treated mice [5]: equivalent
weight placed on operated limb versus contralateral unoperated limb (favoring of unoperated hind limb) [6]: abrogated this effect
destruction of the proteoglycan layer (histopathology) [7]: completely abrogated this effect
reduction of surface area covered by plaques in the descending aorta [8]: about 45%

Nc1nc(O)c2ncn(COC(CO)CO)c2n1 [ganciclovir]
SpO2 levels [1]: statistically significant increases
